Measured values published in ChEMBL document CHEMBL1130712, “Phenylpiperazine derivatives with strong affinity for 5HT1A, D2A and D3 receptors” (Bioorg Med Chem Lett, 1998).

Legend:
D(3) dopamine receptor = D(3) dopamine receptor (Homo sapiens, UniProt P35462); experiment: Compound was measured for the binding affinity in chinese hamster ovary (CHO) cells transfected with human Dopamine receptor D3 using [3H]raclopride as radioligand; assay type: cell-based
[1] = target: T1, 5-hydroxytryptamine receptor 1A (Rattus norvegicus, UniProt P19327); experiment: Compound was measured for the inhibition of [3H]8-OH-DPAT binding to rat hippocampus membrane (5-HT1A receptor); assay type: tissue-based
T1 sequence (P19327 whole entry): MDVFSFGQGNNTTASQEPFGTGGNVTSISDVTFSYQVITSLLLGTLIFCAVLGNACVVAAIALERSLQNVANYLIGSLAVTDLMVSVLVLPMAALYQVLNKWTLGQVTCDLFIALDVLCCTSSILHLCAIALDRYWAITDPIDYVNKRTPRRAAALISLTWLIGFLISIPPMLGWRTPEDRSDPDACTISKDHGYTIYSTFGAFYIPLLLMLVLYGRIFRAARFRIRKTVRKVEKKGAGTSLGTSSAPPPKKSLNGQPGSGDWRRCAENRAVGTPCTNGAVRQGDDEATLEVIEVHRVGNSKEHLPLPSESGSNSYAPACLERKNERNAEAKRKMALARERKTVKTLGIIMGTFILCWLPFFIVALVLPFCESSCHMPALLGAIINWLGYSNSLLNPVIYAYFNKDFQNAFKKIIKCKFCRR

D(2) dopamine receptor = D(2) dopamine receptor (Homo sapiens, UniProt P14416); experiment: Compound was measured for the binding affinity in homogenated mouse fibroblast (LTK) cells transfected with human Dopamine receptor D2A using [3H]raclopride as radioligand.
Sequence of D(2) dopamine receptor (P14416 whole entry): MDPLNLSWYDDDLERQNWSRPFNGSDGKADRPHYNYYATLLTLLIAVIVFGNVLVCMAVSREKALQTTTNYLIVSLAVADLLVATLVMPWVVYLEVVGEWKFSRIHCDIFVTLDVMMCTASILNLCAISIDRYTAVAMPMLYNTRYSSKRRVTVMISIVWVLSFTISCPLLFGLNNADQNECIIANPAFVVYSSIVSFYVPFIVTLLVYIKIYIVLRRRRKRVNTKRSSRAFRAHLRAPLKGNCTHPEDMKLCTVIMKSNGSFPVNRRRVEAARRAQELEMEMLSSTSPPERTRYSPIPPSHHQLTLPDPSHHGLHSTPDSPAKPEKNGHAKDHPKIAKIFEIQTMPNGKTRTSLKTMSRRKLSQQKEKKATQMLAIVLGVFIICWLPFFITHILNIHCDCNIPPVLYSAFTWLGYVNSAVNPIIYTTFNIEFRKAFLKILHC

Sequence of D(3) dopamine receptor (P35462 whole entry): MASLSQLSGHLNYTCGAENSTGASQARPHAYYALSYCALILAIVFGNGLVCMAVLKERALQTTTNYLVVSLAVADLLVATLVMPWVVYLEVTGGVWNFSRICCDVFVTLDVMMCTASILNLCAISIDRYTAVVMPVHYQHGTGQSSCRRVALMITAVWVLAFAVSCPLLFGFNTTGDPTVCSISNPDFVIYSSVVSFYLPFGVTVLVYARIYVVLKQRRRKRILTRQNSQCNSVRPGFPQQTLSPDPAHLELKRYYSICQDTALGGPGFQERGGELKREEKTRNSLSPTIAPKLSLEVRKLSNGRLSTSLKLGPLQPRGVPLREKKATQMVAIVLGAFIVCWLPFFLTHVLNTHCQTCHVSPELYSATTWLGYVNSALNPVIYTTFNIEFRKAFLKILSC

| Ki (D(3) dopamine receptor) | Ki [1] | Ki (D(2) dopamine receptor) | Compound |
| --- | --- | --- | --- |
| 44.7 nM | 5.31 nM | 5.92 nM | Cc1c(C)c2ccc(OCCCN3CCN(c4ccccc4)CC3)cc2oc1=O |
| 49.7 nM | 5.61 nM | 16 nM | O=c1ccc2ccc(OCCCN3CCN(c4ccccc4)CC3)cc2o1 |
| 73.8 nM | 5.54 nM | 13.7 nM | Cc1cc(=O)oc2cc(OCCCN3CCN(c4ccccc4)CC3)ccc12 |

| Compound | Ki (D(3) dopamine receptor) | Ki [1] | Ki (D(2) dopamine receptor) |
| --- | --- | --- | --- |
| Cc1cc2ccc(OCCCN3CCN(c4ccccc4)CC3)cc2oc1=O | 18.9 nM |  | 10.8 nM |
